How the values were obtained:
[1] = test system: TβRI; assay: Immunoblotting of AURKB phosphorylation after TβRI kinase inhibition; type: cell-based, human; settings: PC-3U cells treated or not with SB505124 and TGFβ for 30 minutes
Experimental: (A, B and D) Immunofluorescence experiments showing co-localization of AURKB (green) and TβRI (V22, red) during mitosis in human prostate cancer (PC-3U) (A) and human neuroblastoma (KELLY) (B) cells, and of TβRI (V22, green) and β-tubulin (red) throughout the PC-3U mitosis (D). Scale bar, 20 μm. (C) Localization of survivin (green) and TβRI (V22, red) in PC-3U cells throughout the mitosis (E) Decreased co-localization of TβRI and AURKB after treatment of PC-3U cells on ice for 30 min. Scale bar, 20 μm. (F) Representative confocal images showing the localization of green fluorescent protein (GFP)-VPS4A (green) and β-tubulin (red) with or without knockdown of TβRI by siRNA, or treatment with the TβRI kinase inhibitor SB505124. Scale bar, 5 μm. (G) Multinucleated cells were counted after knockdown of TGFBR1. Data presented as mean±SEM, N=3 [Student's t-test, *P<0.05]. Scale bar, 20 μm. […] (J) PC-3U cells were treated or not with SB505124 and TGFβ for 30 minutes, after which cell lysates were analyzed by immunoblotting. […]
Cells were washed twice with ice-cold phosphate-buffered saline (PBS) and lysed in ice-cold lysis buffer [150 mM NaCl, 50 mM Tris, pH 8.0, 0.5% (v/v) deoxycholate, 1% (v/v) NP40, 10% (v/v) glycerol and protease inhibitors]. After centrifugation, the supernatants were collected, and protein concentrations determined using the BCA Protein Assay Kit (ThermoFisher Scientific). […]

[2] = test system: PC-3U cells; assay: Confocal imaging of abscission (GFP-VPS4A and β-tubulin); type: cell-based, human
Experimental: (A, B and D) Immunofluorescence experiments showing co-localization of AURKB (green) and TβRI (V22, red) during mitosis in human prostate cancer (PC-3U) (A) and human neuroblastoma (KELLY) (B) cells, and of TβRI (V22, green) and β-tubulin (red) throughout the PC-3U mitosis (D). Scale bar, 20 μm. (C) Localization of survivin (green) and TβRI (V22, red) in PC-3U cells throughout the mitosis (E) Decreased co-localization of TβRI and AURKB after treatment of PC-3U cells on ice for 30 min. Scale bar, 20 μm. (F) Representative confocal images showing the localization of green fluorescent protein (GFP)-VPS4A (green) and β-tubulin (red) with or without knockdown of TβRI by siRNA, or treatment with the TβRI kinase inhibitor SB505124. Scale bar, 5 μm. (G) Multinucleated cells were counted after knockdown of TGFBR1. Data presented as mean±SEM, N=3 [Student's t-test, *P<0.05]. Scale bar, 20 μm. […] The gene sets are ordered by normalized enrichment score. Color indicates the adjusted p-value. (I) GSEA plots of the hallmark mitotic spindle (left) and G2/M checkpoint (right) gene sets show their strong association with TGFBR1-correlated genes. […] (J) PC-3U cells were treated or not with SB505124 and TGFβ for 30 minutes, after which cell lysates were analyzed by immunoblotting. […]

[3] = molecular target: T1, glutathione-S-transferase (GST)-TβRI, P36897
T1 chain: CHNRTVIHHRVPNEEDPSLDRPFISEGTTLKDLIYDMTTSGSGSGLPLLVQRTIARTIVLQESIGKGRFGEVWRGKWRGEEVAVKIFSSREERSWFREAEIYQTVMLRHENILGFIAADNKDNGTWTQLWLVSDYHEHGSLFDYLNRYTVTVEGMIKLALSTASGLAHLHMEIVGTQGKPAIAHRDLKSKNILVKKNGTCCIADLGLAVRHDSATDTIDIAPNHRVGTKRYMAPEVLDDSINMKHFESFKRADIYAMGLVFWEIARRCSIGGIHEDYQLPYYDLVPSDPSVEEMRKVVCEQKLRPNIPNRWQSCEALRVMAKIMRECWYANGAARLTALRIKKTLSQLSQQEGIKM

[4] = molecular target: T2, Flag-tagged wild-type AURKB
T2 chain: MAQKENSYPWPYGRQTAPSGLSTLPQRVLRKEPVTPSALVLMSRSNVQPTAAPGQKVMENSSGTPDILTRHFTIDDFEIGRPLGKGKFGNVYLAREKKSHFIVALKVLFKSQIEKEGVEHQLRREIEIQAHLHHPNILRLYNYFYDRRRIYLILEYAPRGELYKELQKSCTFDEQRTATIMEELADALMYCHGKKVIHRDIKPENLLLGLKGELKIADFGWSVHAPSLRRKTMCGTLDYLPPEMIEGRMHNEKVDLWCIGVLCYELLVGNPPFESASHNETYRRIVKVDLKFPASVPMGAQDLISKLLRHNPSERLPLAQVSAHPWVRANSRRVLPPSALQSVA

## Cc1cccc(-c2[nH]c(C(C)(C)C)nc2-c2ccc3c(c2)OCO3)n1 [SB505124]
[1]
  AURKB phosphorylation: suppressed AURKB phosphorylation
[2]
  effect on abscission: did not affect the abscission

B1: His-AURKB (protein)
chain: MAQKENSYPWPYGRQTAPSGLSTLPQRVLRKEPVTPSALVLMSRSNVQPTAAPGQKVMENSSGTPDILTRHFTIDDFEIGRPLGKGKFGNVYLAREKKSHFIVALKVLFKSQIEKEGVEHQLRREIEIQAHLHHPNILRLYNYFYDRRRIYLILEYAPRGELYKELQKSCTFDEQRTATIMEELADALMYCHGKKVIHRDIKPENLLLGLKGELKIADFGWSVHAPSLRRKTMCGTLDYLPPEMIEGRMHNEKVDLWCIGVLCYELLVGNPPFESASHNETYRRIVKVDLKFPASVPMGAQDLISKLLRHNPSERLPLAQVSAHPWVRANSRRVLPPSALQSVA
[3]
  in vitro kinase assay (phosphorylation of GST-TβRI): His-AURKB phosphorylated glutathione-S-transferase (GST)-TβRI in an in vitro kinase assay

B2: TNF receptor associated factor 6 (TRAF6), endogenous in PC-3U cells (protein)
chain: MSLLNCENSCGSSQSESDCCVAMASSCSAVTKDDSVGGTASTGNLSSSFMEEIQGYDVEFDPPLESKYECPICLMALREAVQTPCGHRFCKACIIKSIRDAGHKCPVDNEILLENQLFPDNFAKREILSLMVKCPNEGCLHKMELRHLEDHQAHCEFALMDCPQCQRPFQKFHINIHILKDCPRRQVSCDNCAASMAFEDKEIHDQNCPLANVICEYCNTILIREQMPNHYDLDCPTAPIPCTFSTFGCHEKMQRNHLARHLQENTQSHMRMLAQAVHSLSVIPDSGYISEVRNFQETIHQLEGRLVRQDHQIRELTAKMETQSMYVSELKRTIRTLEDKVAEIEAQQCNGIYIWKIGNFGMHLKCQEEEKPVVIHSPGFYTGKPGYKLCMRLHLQLPTAQRCANYISLFVHTMQGEYDSHLPWPFQGTIRLTILDQSEAPVRQNHEEIMDAKPELLAFQRPTIPRNPKGFGYVTFMHLEALRQRTFIKDDTLLVRCEVSTRFDMGSLRREGFQPRSTDAGV
[4]
  polyubiquitination of AURKB (Flag IP, HA-ubiquitin immunoblot, with or without TRAF6 siRNA): Knockdown of TRAF6 by siRNA in PC-3U cells suppressed polyubiquitination of AURKB

Source: US20240264161A1, “BIOMARKERS AND USES THEREOF” (MetaCurUm Biotech AB, priority 2021, published 2024)
